Test system: Pseudomonas aeruginosa PAM1001
Test: microbe, parasite or virus in culture
Type: cell-based
Description: The activity of efflux pump inhibitors (EPI) in combination with fluoroquinolones, such as levofloxacin, is assessed by the checkerboard assay (Antimicrobial Combinations. In Antibiotics in Laboratory Medicine, Ed. Victor Lorian, M. D., Fourth edition, 1996, pp 333-338) using broth microdilution method performed as recommended by the NCCLS (National Committee for Clinical Laboratory Standards (NCCLS). 1997. Methods for Dilution of Antimicrobial Susceptibility Tests for Bacteria That Grow Aerobically--Fourth Edition; Approved Standard. NCCLS Document M7-A4, Vol 17 No.2). The test organism used is Pseudomonas aeruginosa PAM1001.
In this assay, multiple dilutions of two drugs, namely the EPI and levofloxacin, are being tested, alone and in combination, at concentrations equal to, above and below their respective minimal inhibitory concentrations (MICs).
Stock solutions are further diluted, according to the needs of a particular assay, in Mueller Hinton Broth (MHB). Stock solution can be stored at -80° C. Quinolones are solubilized according to the instructions of the manufacturers, at a concentration of 1 mg/ml. They are then further diluted in MHB. Stock solution can be stored at -80° C.
The checkerboard assay is performed in microtiter plates. Levofloxacin is diluted in the x axis, each column containing a single concentration of levofloxacin. The EPI is diluted in the y axis, each row containing an equal concentration of EPI. The result of these manipulations is that each well of the microtiter plate contains a unique combination of concentrations of the two agents. Each EPI are tested independently.
The assay is performed in MHB with a final bacterial inoculum of 5×10^5 CFU/ml (from an early-log phase culture). Microtiter plates are incubated during 20 h at 35° C. and are read using a microtiterplate reader (Molecular Devices) at 650 nm as well as visual observation using a microtiterplate reading mirror.

[1] = Table 1, EPI Conc. μg/ml (number not given; column between 10 and 40 μg/ml)
[2] = Table 2, EPI Conc. μg/ml (number not given; column between 10 and 40 μg/ml)
[3] = Table 3, EPI Conc. μg/ml (number not given; column between 10 and 40 μg/ml)
[4] = Table 4, EPI Conc. μg/ml (number not given; column between 10 and 40 μg/ml)

Measured: Levofloxacin MIC Against P. aeruginosa PAM1001 in Presence of Efflux Pump Inhibitor (EPI), Minimum Inhibitory Concentration

D-Lysyl-β-N-(Ethylthioethyl)alanine 2-Naphthylamide Trifluoroacetate [Example 26]
2 µg/mL: Table 2, EPI Conc. 5 μg/ml
0.25 µg/mL: Table 4, EPI Conc. 10 μg/ml
0.015 µg/mL: Table 3, EPI Conc. 10 μg/ml
1 µg/mL: Table 1, EPI Conc. 5 μg/ml | Table 4, EPI Conc. 5 μg/ml
4 µg/mL: Table 1, EPI Conc. 0 μg/ml | Table 1, EPI Conc. 0.625 μg/ml | Table 2, EPI Conc. 0 μg/ml | Table 2, EPI Conc. 0.625 μg/ml | Table 2, EPI Conc. […] | Table 3, EPI Conc. 0 μg/ml | Table 3, EPI Conc. 0.625 μg/ml | Table 4, EPI Conc. 0 μg/ml | Table 4, EPI Conc. 0.625 μg/ml | Table 4, EPI Conc. […]
0.03 µg/mL: [3] | Table 4, EPI Conc. 40 μg/ml
0.06 µg/mL: Table 1, EPI Conc. 40 μg/ml | Table 2, EPI Conc. 40 μg/ml | Table 3, EPI Conc. 5 μg/ml
0.125 µg/mL: Table 1, EPI Conc. 10 μg/ml | [1] | Table 2, EPI Conc. 10 μg/ml | [2] | [4]

Phenylalanyl-Nα -methylornithine 2-(naphthylmethyl)amide [Compound 17 (Table 1)]
0.25 µg/mL: Table 1, EPI Conc. 5 μg/ml | Table 3, EPI Conc. 40 μg/ml
0.03 µg/mL: Table 2, EPI Conc. 40 μg/ml
0.125 µg/mL: Table 1, EPI Conc. 10 μg/ml | Table 1, EPI Conc. 40 μg/ml | Table 4, EPI Conc. 10 μg/ml | Table 4, EPI Conc. 40 μg/ml | [4]
4 µg/mL: Table 1, EPI Conc. 0 μg/ml | Table 1, EPI Conc. 0.625 μg/ml | Table 2, EPI Conc. 0 μg/ml | Table 2, EPI Conc. 0.625 μg/ml | Table 2, EPI Conc. 5 μg/ml | Table 2, EPI Conc. […] | Table 3, EPI Conc. 0 μg/ml | Table 3, EPI Conc. 0.625 μg/ml | Table 3, EPI Conc. 5 μg/ml | Table 3, EPI Conc. […] | Table 4, EPI Conc. 0 μg/ml | Table 4, EPI Conc. 0.625 μg/ml
0.50 µg/mL: [2] | Table 4, EPI Conc. 5 μg/ml
1 µg/mL: [3]
0.06 µg/mL: [1]
2 µg/mL: Table 2, EPI Conc. 10 μg/ml | Table 3, EPI Conc. 10 μg/ml

D-Lysyl-β-N-(Cyclohexylmethyl)alanine Quinoline-3-amide Trifluoroacetate [Example 18]
0.125 µg/mL: Table 2, EPI Conc. 40 μg/ml | [2] | [4]
0.50 µg/mL: [1] | Table 3, EPI Conc. 10 μg/ml | Table 4, EPI Conc. 10 μg/ml
4 µg/mL: Table 1, EPI Conc. 0 μg/ml | Table 1, EPI Conc. 0.625 μg/ml | Table 1, EPI Conc. 5 μg/ml | Table 1, EPI Conc. […] | Table 2, EPI Conc. 0 μg/ml | Table 2, EPI Conc. 0.625 μg/ml | Table 2, EPI Conc. 5 μg/ml | Table 2, EPI Conc. […] | Table 3, EPI Conc. 0 μg/ml | Table 3, EPI Conc. 0.625 μg/ml | Table 4, EPI Conc. 0 μg/ml | Table 4, EPI Conc. 0.625 μg/ml | Table 4, EPI Conc. […]
0.03 µg/mL: Table 3, EPI Conc. 40 μg/ml | [3]
1 µg/mL: Table 3, EPI Conc. 5 μg/ml
0.25 µg/mL: Table 1, EPI Conc. 40 μg/ml | Table 4, EPI Conc. 40 μg/ml
2 µg/mL: Table 1, EPI Conc. 10 μg/ml | Table 2, EPI Conc. 10 μg/ml | Table 4, EPI Conc. 5 μg/ml
